From patent publication US7524930B2, “Tumor antigen” (Green Peptide Co., Ltd, priority 2003, dated 2009)

B1: clone 4: cDNA clone from Panc-1, 831 bp [AB044548], high homology with EIF4EBP1 (nucleic acid, listed as Homo sapiens)
DNA: GCGGGAGGGCAGCGAGAGGTTCGCGGGTGCAGCGCACAGGAGACCATGTCCGGGGGCAGCAGCTGCAGCCAGACCCCAAGCCGGGCCATCCCCGCCACTCGCCGGGTGGTGCTCGGCGACGGCGTGCAGCTCCCGCCCGGGGACTACAGCACGACCCCCGGCGGCACGCTCTTCAGCACCACCCCGGGAGGTACCAGGATCATCTATGACCGGAAATTCCTGATGGAGTGTCGGAACTCACCTGTGACCAAAACACCCCCAAGGGATCTGCCCACCATTCCGGGGGTCACCAGCCCTTCCAGTGATGAGCCCCCCATGGAAGCCAGCCAGAGCCACCTGCGCAATAGCCCAGAAGATAAGCGGGCGGGCGGTGAAGAGTCACAGTTTGAGATGGACATTTAAAGCACCAGCCATCGTGTGGAGCACTACCAAGGGGCCCCTCAGGGCCTTCCTGGGAGGAGTCCCACCAGCCAGGCCTTATGAAAGTGATCATACTGGGCAGGCGTTGGCGTGGGGTCGGACACCCCAGCCCTTTCTCCCTCACTCAGGGCACCTGCCCCCTCCTCTTCGTGAACACCAGCAGATACCTCCTTGTGCCTCCACTGATGCAGGAGCTGCCACCCCAAGGGGAGTGACCCCTGCCAGCACACCCTGCAGCCAAGGGCCAGGAAGTGGACAAGAACGAACCCTTCCTTCCGAATGATCAGCAGTTCCAGCCCCTCGCTGCTGGGGGCGCAACCACCCCTTCCTTAGGTTGATGTGCTTGGGAAAGCTCCCTCCCCCTCCTTCCCCAAGAGAGGAAATAAAAGCCACCTTCGCCCTAGGGCCAAG
modifications: polyA_site (831)..(831)

Key:
Assay type in all cases: cell-based, human
[1] = test system: peripheral blood mononuclear cells derived from a cancer patient; test: CTL induction by peptide from autologous PBMC of cancer patient, IFN-γ production on recognition of target cells (Example 5); conditions: for Recognition of tumor cells by PBMC stimulated in vitro with peptide (IFN-γ production): SW620, CA9-22 and Panc-1 HLA-A2+ tumor cells, result in words; for IFN-γ production from peripheral blood mononuclear cells in recognition of target cells: PBMC stimulated with 10 μM peptide
Source text: Among the peptides that were able to enhance IFN-γ production from the OK-CTLp or OK-CTL clone in Example 4, those from P1 to P19 were examined for their ability to induce CTL from peripheral blood mononuclear cells derived from a cancer patient. The method for inducing CTL by a peptide was according to the well-known method (J. Exp. Med., 187:277-288, 1998; Cancer Res., 59:4056-4063, 1999.) Specifically, autologous peripheral blood mononuclear cells (PBMC) derived from a cancer patient, from whom OK-CTLp was obtained, were incubated together with the peptide (10 μM.) The cells were re-stimulated at day 10 and 14 after the start of culturing, using autologous PBMCs as an antigen presenting cell (APC) which were pulsed with 10 μM of the same peptide for 2 h and exposed to irradiation (30 gray.) At day 21 after the start of culturing, the cells were collected to test for surface phenotype. In addition, the cells were examined for the recognition of various target cells, using IFN-γ production measured by ELISA when they were cultured together with the target cells as an indicator. As a target cells, SW620 cell, CA9-22 cell, and Panc-1 cell, which are the HLA-A2^+ tumor cells, were used.

[2] = test system: peripheral blood mononuclear cells derived from a cancer patient; test: as above; conditions: PBMC stimulated with 10 μM peptide
OK-CTL clone = test: IFN-γ production by OK-CTL clones cultured with COS-7 cells cotransfected with cDNA clone and HLA-A0207 cDNA; design: unit not given here
Protocol: Since CTL activated by recognizing the tumor antigen is a population of cells recognizing plural kinds of tumor antigens, the above-described OK-CTLp was subjected to cloning by limiting dilution culture (0.3, 0.5, 1, 2, and 4 cells/well) to obtain an OK-CTL clone (J. Immunol., 163:4994-5004, 1999. ) These clones are those having CTL activity selected by culturing them together with COS-7 cells into which 100 ng/well of any one of the above-described seven cDNA clones and 100 ng/well of HLA-A0207 cDNA were cotransfected, or with the tumor cells, in a cell ratio of 1:1, and measuring IFN-γ production. Specifically, three hundred CTL clones were obtained from the parent line OK-CTLp by a limiting dilution culture. Eighty CTL clones among them had HLA-A2-restricted tumor-specific CTL activity and expressed the phenotype of CD3^+ CD4^− CD8^+ and TCR αβ^+.

[3] = CTL clone 0.5-1-D6, cDNA with HLA-A0207 cDNA in COS-7
[4] = CTL clone 0.5-1-D7, cDNA with HLA-A0207 cDNA in COS-7
[5] = CTL clone 0.5-1-H2, cDNA with HLA-A0207 cDNA in COS-7
[6] = CTL clone 0.5-1-H12, cDNA with HLA-A0207 cDNA in COS-7
[7] = CTL clone 0.5-2-A4, cDNA with HLA-A0207 cDNA in COS-7
[8] = CTL clone 1-2-D1, cDNA with HLA-A0207 cDNA in COS-7
[9] = CTL clone 1-2-D7, cDNA with HLA-A0207 cDNA in COS-7
[10] = CTL clone 1-2-D12, cDNA with HLA-A0207 cDNA in COS-7
[11] = CTL clone 2-1-F4, cDNA with HLA-A0207 cDNA in COS-7
[12] = CTL clone 2-1-H12, cDNA with HLA-A0207 cDNA in COS-7
[13] = CTL clone 2-2-B4, cDNA with HLA-A0207 cDNA in COS-7
[14] = CTL clone 2-2-H3, cDNA 100 ng/well with HLA-A0207 cDNA in COS-7
[15] = CTL clone 4-1-H8, cDNA with HLA-A0207 cDNA in COS-7
[16] = CTL clone 4-2-A11, cDNA with HLA-A0207 cDNA in COS-7
[17] = CTL clone 4-2-B3, cDNA with HLA-A0207 cDNA in COS-7

Molecule	IFN-γ production by CTL clone (OK-CTL clone; [3])	IFN-γ production by CTL clone (OK-CTL clone; [4])	IFN-γ production by CTL clone (OK-CTL clone; [5])	IFN-γ production by CTL clone (OK-CTL clone; [6])	IFN-γ production by CTL clone (OK-CTL clone; [7])	IFN-γ production by CTL clone (OK-CTL clone; [8])	IFN-γ production by CTL clone (OK-CTL clone; [9])	IFN-γ production by CTL clone (OK-CTL clone; [10])	IFN-γ production by CTL clone (OK-CTL clone; [11])	IFN-γ production by CTL clone (OK-CTL clone; [12])	IFN-γ production by CTL clone (OK-CTL clone; [13])	IFN-γ production by CTL clone (OK-CTL clone; [14])	IFN-γ production by CTL clone (OK-CTL clone; [15])	IFN-γ production by CTL clone (OK-CTL clone; [16])	IFN-γ production by CTL clone (OK-CTL clone; [17])	further results
ALVEFEDVL (Designed peptide having an ability to activate HLA-A2 restricted Cytotoxic T lymphocytes) [Peptide P6, Gene 2 (HNRPL) 140-148]	–	–	–	–	–	–	–	–	–	–	–	–	–	–	–	Recognition of tumor cells by PBMC stimulated in vitro with peptide (IFN-γ production) [1]: produced IFN-γ in a significant amount; IFN-γ production from peripheral blood mononuclear cells in recognition of target cells ([1]; target CA9-22 (HLA-A0207/24)): 863 pg/mL; IFN-γ production from peripheral blood mononuclear cells in recognition of target cells ([1]; target Panc-1 (HLA-A0201/11)): 527 pg/mL; IFN-γ production from peripheral blood mononuclear cells in recognition of target cells ([1]; target SW620 (HLA-A0201/24)): 344 pg/mL; IFN-γ production from peripheral blood mononuclear cells in recognition of target cells ([2]; target COLO320 (HLA-A24/24)): 40 pg/mL; IFN-γ production from peripheral blood mononuclear cells in recognition of target cells ([2]; target QG56 (HLA-A26/26)): 0 pg/mL; IFN-γ production from peripheral blood mononuclear cells in recognition of target cells ([2]; target RERF-LC-MS (HLA-A11/11)): 8 pg/mL
ASLDSDPWV (Designed peptide having an ability to activate HLA-A2 restricted Cytotoxic T lymphocytes) [Peptide P10, Gene 3 (WHSC2) 103-111]	–	–	–	–	–	–	–	–	–	–	–	–	–	–	–	Recognition of tumor cells by PBMC stimulated in vitro with peptide (IFN-γ production) [1]: produced IFN-γ in a significant amount; IFN-γ production from peripheral blood mononuclear cells in recognition of target cells ([1]; target CA9-22 (HLA-A0207/24)): 130 pg/mL; IFN-γ production from peripheral blood mononuclear cells in recognition of target cells ([1]; target Panc-1 (HLA-A0201/11)): 163 pg/mL; IFN-γ production from peripheral blood mononuclear cells in recognition of target cells ([1]; target SW620 (HLA-A0201/24)): 108 pg/mL; IFN-γ production from peripheral blood mononuclear cells in recognition of target cells ([2]; target COLO320 (HLA-A24/24)): 0 pg/mL; IFN-γ production from peripheral blood mononuclear cells in recognition of target cells ([2]; target QG56 (HLA-A26/26)): 0 pg/mL; IFN-γ production from peripheral blood mononuclear cells in recognition of target cells ([2]; target RERF-LC-MS (HLA-A11/11)): 0 pg/mL
Clone 5: cDNA clone from Panc-1, 2404 bp [AB044546], homology with ppMAPkkk	0	0	81	0	0	0	0	0	>1000	0	0	0	0	0	0	–
clone 1: cDNA clone from Panc-1, 1775 bp [AB044550], high homology with UBE2V	19	27	0	0	0	21	0	0	0	134	0	110	0	0	0	–
clone 2: cDNA clone from Panc-1, 2097 bp [AB044547], high homology with HNRPL	0	34	0	0	0	0	200	>1000	0	0	0	0	133	0	0	–
clone 3: cDNA clone from Panc-1, 2243 bp [AB044549], high homology with WHSC2	0	0	0	0	0	22	0	0	0	0	0	0	0	100	0	–
clone 6: cDNA clone from Panc-1, 6707 bp [AB044545], homology with 2-5 OAS3	13	110	0	0	113	61	0	0	0	0	>1000	0	0	0	0	–
B1	118	0	0	>1000	0	44	0	0	0	0	0	0	0	0	95	–
